Laboratory results from US10420759B2, “Small molecule therapies for pulmonary hypertension” (Creighton University, priority 2016, dated 2019).

Assays:
[1] = test system: eNOS−/− mice; assay: Right ventricular systolic pressure (RVSP) in eNOS-knockout mice, acute intravenous CXN-8; type: in vivo, mouse; settings: 4.6 mg/kg i.v. via femoral vein, baseline 40.7±7.6 mmHg
Description: (§1) Mice (20-25 g) were anesthetized via an intraperitoneal (i.p.) injection of a combination of xylazine (10 mg/kg body weight) and ketamine (100 mg/kg body weight). One-half dose was given as supplemental anesthesia as needed. Animals were placed on a heating pad set to maintain body temperature at approximately 37° C. The neck and upper chest area were cleaned with 70% isopropyl alcohol and a 2 cm long incision was made anterior to the manubrium on the right side and above the jugular fossa. The jugular fossa was identified and the external jugular vein was isolated from surrounding tissue. The anterior projection of the jugular vein was tied off with 8-0 silk suture and a 1 mm incision was made in the jugular vein. A 1 French Mikro-Tip pressure catheter (Millar Inc, Houston, Tex.) catheter was inserted into the jugular vein and advanced through the right atrium into the right ventricle to measure ventricular systolic pressure of mice via a pressure transducer using PowerLab monitoring hardware and software (AD Instruments, Colorado Springs, Colo., USA). The pressure catheter was secured in place using an 8-0 silk suture tied around the catheterized jugular vein. […]
(§2) CXN-8 was administered intravenously in a dose-escalation manner in 15 minute intervals from doses of 0.14 mg/kg to 4.6 mg/kg. Hemodynamic indices, including heart rate (HR) and RVSP were measured. […]

[2] = test system: mouse isolated extralobar pulmonary arteries; assay: Relaxation of pre-constricted mouse isolated extralobar pulmonary artery rings (isometric tension); type: cell-based; settings: for EC50: Mus musculus; for relaxation: 1 μM
Text: Mouse extralobar pulmonary arteries were isolated and prepared using a modification of a previously reported procedure (see e.g., Bockman et al., 1996, J. Pharmacol. Exp. Ther. 278:1235-1243). Mice were euthanized with CO2, the chest was opened, and the heart and lung combined were isolated from surrounding tissue. The main pulmonary artery was isolated from its origin at the right ventricle, past its bifurcation into the right and left pulmonary arteries. The artery segment was removed and placed in Krebs solution (composition in mM: NaCl 126, KCl 5.5, CaCl2 2.5, NaH2PO4 1.2, MgCl2 1.2, NaHCO3 25, dextrose 11.1, Na2Ca EDTA 0.029) equilibrated with 95%02-5% CO2 (pH 7.4). The pulmonary artery segment was cleaned of connective tissue and the main pulmonary artery and its right and left branches were cut into 2 mm long rings. The rings were mounted using 2 stainless steel pins (0.1 mm in diameter) passed through the artery lumen. One pin was attached to a Kent isometric force transducer (Kent Scientific Corp, Torrington Conn.) for measurement of isometric tension while the second pin was held in a fixed position. This allowed for measurement of contraction and relaxation of the ring in the circular direction. Mounted rings were placed in 10 mL of Krebs solution in glass muscle chambers (Radnoti, Monrovia, Calif.) gassed with 95% 02-5% CO2, and maintained at 37° C. Rings were washed with Krebs solution and equilibrated for 90-120 min at a passive resting tension of 150 mg before experiments with test agents were started.
Mouse isolated extralobar pulmonary arteries were pre-constricted with 250 nM 5-HT, a concentration that causes submaximal constriction, as shown in FIG. 2A. Cumulative addition of pirfenidone and CXN-8 caused a concentration-dependent relaxation of mouse pulmonary arteries with a maximal relaxation of 84.9±3.4% and 76.7±7.0%, respectively, as shown in FIG. 2B.
The endothelium was removed from pulmonary arteries by inserting a small (200 μm diameter) wire into the inside lumen of the arteries and gently rubbing the internal surface. To test for the presence of functional endothelium, rings with and without rubbing were contracted with 250 nM 5-HT followed by relaxation using 1 μM of the endothelium dependent vasorelaxant acetylcholine. Rings that relaxed by 5% or less were considered as lacking the endothelium. Rings with and without endothelium were used to test the relaxant effects of CXN-8.
The synthesis of NO is mediated by a family of NO synthase enzymes. It is well accepted that acetylcholine induces relaxation of pulmonary arteries via endothelium-dependent NO production. Nitric oxide production was inhibited in pulmonary arteries by 30 min incubation with the nitric oxide synthesis inhibitor nitro-L-arginine methyl ester (L-NAME, 100 μM). To test for nitric oxide synthase inhibition by L-NAME, rings were contracted with 250 nM 5-HT followed by relaxation using 1 μM of the nitric oxide dependent vasorelaxant acetylcholine. The relaxant effects of CXN-8 were then tested in rings in the absence (with nitric oxide) and the presence (without nitric oxide) of L-NAME.

[3] = test system: mouse isolated extralobar pulmonary arteries; assay: as above; type: cell-based; settings: for EC50: Mus musculus
[4] = test system: small pulmonary arteries in mouse precision-cut lung slices; assay: Relaxation of pre-constricted small pulmonary arteries in mouse precision-cut lung slices; type: cell-based; settings: for maximal relaxation: % relaxation of pre-constriction to 100 nM 5-HT; for EC50: Mus musculus, pre-constricted with 100 nM 5-HT
Description: Precision cut lung slices were prepared using a modification of previously reported procedures (see e.g., Jiang et al., 2010, J. Pharmacol. Exp. Ther. 334:703-709) and based on the method described by Perez-Joghbi and Sanderson (see e.g., Perez-Joghbi, J. F. and Sanderson, M. J., Am. J. Physiol., 2007, 293:L1000-L1011). Mice were euthanized with CO2, a 2 cm long incision was made in the midline of the neck above the trachea and the trachea was isolated from surrounding tissue. The trachea was cut open and cannulated with PE 90 plastic tubing. A solution of 2% low melting point agarose (Sigma-Aldrich, St. Louis Mo.) in Hanks Buffered Salt solution (HBSS) was prepared at 37° C. Lungs were inflated by injecting 1.2 ml of 2% agarose followed by 0.2 ml of air through the tracheal cannula. The chest was then opened along the midline and the heart was exposed. A solution of 6% gelatin (Sigma-Aldrich, St. Louis Mo.) was prepared in HBSS and 0.4 mL was injected into the right ventricle using a 1 mL syringe and 26 gauge needle, to fill the pulmonary arteries with gelatin. The mouse was cooled to 4° C. for 15 min to harden the agarose and gelatin to stiffen the lung for sectioning. The individual lung lobes were then isolated, glued to a platform and sliced perpendicular to the long axis of the lung. 150 μm thick slices were prepared in ice cold HBSS using an EMS-4000 tissue slicer (Electron Microscopy Sciences, Fort Wash. Pa.). The slices were maintained in sterile, serum-free Dulbecco's modified Eagle's medium (DMEM, Gibco, Grand Island, N.Y.) containing penicillin (100 U/mL, Cellgro, Manassas, Va.), streptomycin (100 μg/mL, Cellgro, Manassas, Va.) and amphotericin B (1.5 μg/mL, Cellgro, Manassas, Va.) at 37° C. and 5% CO2+95% air in a humidified incubator for not more than 3 days.
The method used to measure constriction and relaxation of pulmonary arteries in lung slices is a modification of a method previously described that was used to measure constriction and relaxation of mouse airways (see e.g., Jiang et al., 2010 J. Pharmacol. Exp. Ther. 334:703-709). Lung slices were placed on glass coverslips in a 1 mL volume incubation chamber and held in place with nylon mesh (Small Parts Inc, Miami Lakes, Fla.). The chamber was placed on the stage of a Nikon (Melville, N.Y.) TE200 inverted microscope at room temperature and slices incubated in HBSS containing 10 mM HEPES buffer. Pulmonary arteries in lung slices were imaged using a 20× objective and images recorded using a CoolSNAP HQ2 digital camera (Photometrics, Tucson Ariz.). Images in the absence and the presence of the vasoconstrictor 5-HT (Sigma-Aldrich, St. Louis, Mo.) and the vasorelaxants pirfenidone (Sigma-Aldrich, St. Louis Mo.) and CXN-8, CXN-9 and CXN-16 were collected and vasoconstriction and vasorelaxation was calculated by pixel summing of the cross-sectional area of the pulmonary artery lumen before and after addition of the test agent, using ImageJ software (http://imagej.nih.gov). A decrease in cross-sectional area was defined as vasoconstriction while an increase in cross-sectional area was defined as vasorelaxation, as shown in FIGS. 1A-1B.
First, small pulmonary arteries were pre-constricted in mouse precision-cut lung slices with 100 nM 5-HT, a concentration that causes submaximal constriction of pulmonary arteries, as shown in FIG. 1A.

[5] = test system: hypoxic mice (C57BL/6); assay: RVSP in chronic hypoxia model of PH in mice, acute intravenous CXN-8; type: in vivo, mouse; settings: 1.4 mg/kg i.v. via femoral vein, baseline 56.4±1.0 mmHg
Description: as §1, §2

[6] = test system: RGS2−/− mice; assay: RVSP in RGS2 knockout mice, acute intravenous CXN-8; type: in vivo, mouse; settings: RGS2 KO mice, 4.6 mg/kg i.v. via femoral vein; baseline 36.7±1.9 mmHg
Description: as §1, §2

[7] = 250 nM 5-HT, pre-treatment with L-NAME (100 μM)
[8] = endothelium-denuded arteries, 250 nM 5-HT
[9] = intact rings pre-constricted with 250 nM 5-HT

SMILES: Cc1ccc(=O)n(-c2ccc(OCCCN3CCCCC3)cc2)c1 [CXN-8, 5-methyl-1-(4-(3-(piperidin-1-yl)propoxy)phenyl)pyridin-2(1H)-one]
- RVSP after treatment [1]: 29.3±1.5 mmHg
- maximal relaxation ([2]; 250 nM 5-HT, absence of L-NAME): 74.5±7.4%
- maximal relaxation [2, 7]: 45.5±6.2%
- EC50 ([2]; 250 nM 5-HT, absence of L-NAME): 5.6 nM
- EC50 [2, 7]: 9.9 nM
- EC50 [2, 8]: 10.9 nM
- EC50 [2, 9]: 5.2 nM
- maximal relaxation [2, 8]: 47.2±2.9%
- maximal relaxation [2, 9]: 76.7±7.0%
- EC50 ([3]; ET-1 pre-contracted arteries): 21.7 nM
- EC50 ([3]; U46619 pre-contracted arteries): 40.3 nM
- maximal relaxation ([3]; U46619 (20 nM) pre-contracted arteries): 70.6±7.1%
- maximal relaxation ([3]; endothelin 1 (ET-1, 10 nM) pre-contracted arteries): 86.6±4.1%
- maximal relaxation [4]: 77.1±9.6%
- EC50 [4]: 5.6 nM
- RVSP after treatment [5]: 37.4±1.7 mmHg
- RVSP after treatment [6]: 19.6±0.9 mmHg

SMILES: Cc1ccc(=O)n(-c2ccc(OCCCCN3CCCCC3)cc2)c1 [CXN-9, 5-methyl-1-(4-(4-(piperidin-1-yl)butoxy)phenyl)pyridin-2(1H)-one]
- EC50 [4]: 69.8 nM

SMILES: Cc1ccc(=O)n(-c2ccc(OCCCCN(C)C)cc2)c1 [CXN-16, 1-(4-(4-(dimethylamino)butoxy)phenyl)-5-methylpyridin-2(1H)-one]
- EC50 ([4]; unit inferred): 1700 nM

SMILES: CC(=O)OCC[N+](C)(C)C [acetylcholine, reference compound]
- relaxation ([2]; 250 nM 5-HT-pre-contracted endothelium-denuded arteries): 5%
- relaxation ([2]; 250 nM 5-HT-pre-contracted endothelium-intact arteries): 42%

SMILES: Cc1ccc(=O)n(-c2ccccc2)c1 [pirfenidone, 5-methyl-1-phenylpyridin-2(1H)-one, reference compound]
- EC50 [2, 9]: 94000 nM
- maximal relaxation [2, 9]: 84.9±3.4%
- maximal relaxation [4]: 81.2±4.8%
- EC50 ([4]; cumulative addition): 14300 nM
